# Key:
# [1] = system: CD83, CD86 surface markers of predendritic cells (DC-6); experiment: dendritic cell differentiation test: CD83, CD86 surface marker expression; type: cell-based, human; settings: for CD86 % CD / CD86 Fluorescence: 10 μg/ml; for CD86 % CD: products redissolved in pyrogen-free water, % of dendritic cells; for CD86 Fluorescence: mean fluorescence value
# Method: The ability of products of the invention to induce maturation of predendritic cells into dendritic cells was assessed. The following parameters were measured: FITC-Dextran conjugate take-up and expression of CD83, CD86 surface markers.
# Mononucleated cells of peripheral blood are isolated from buffy coats of healthy donors. Purified monocytes by adherence selection are resuspended in RPMI-1640 medium containing 10% of foetal calf serum (FCS), GM-CSF and IL-4 (10 ng/ml) at a density of 1×10^6 cells/ml. Cells are divided into Petri Dishes (10×10^6 cells per dish) and cultured for 6 days with a change to fresh medium after 3 days. Cells thus obtained are called predendritic cells (DC-6). Maturation of predendritic cells into mature dendritic cells is achieved by incubating cells with diluted solutions of the products or LPS (positive control) for 3 more days (see product section below). At day 9 (DC-9), cells are harvested and analyzed for different indicators of dendritic cell maturation: assessment of CD83, CD86 surface marker expression as well as of their ability to take up FITC-Dextran conjugate. All these parameters are analyzed by an EPICS-XL-MCL model FACS (Coulter Immunology, Hialeah, […]).
# Expression of surface markers is given as % of mean fluorescence of LPS-activated cells (positive control); FITC-Dextran conjugate take-up rate is calculated based on take-up of cells maintained in basic medium and is expressed in %.
# Solutions are incubated at 37° C. for 20 minutes, subjected to vigorous stirring during 3 minutes and then diluted to 100 μg/ml in RPMI-1640 culture medium and used in diluted state at concentrations ranging from 10 μg/ml to 0.03 μg/ml. Reference Product: E. coli lipopolysaccharide (LPS, DIFCO, Detroit, Mich., U.S.A.), as a 5 mg/ml stock solution in PBS. An intermediate 100 μg/ml solution is prepared in RPMI 1640 culture medium. Concentrations of dilute solutions being tested range from 1 μg/ml to 0.03 μg/ml.
# In another series of experiments, all acyl dipeptide-like compounds were freeze-dried and directly redissolved into pyrogen-free water. Different products as well as LPS control are tested at a concentration of 10 μg/ml. Results are given as % of dendritic cells and mean fluorescence value for dextran phagocytosis or CD86 surface marker expression.
# [2] = system: human peripheral blood mononuclear cells; experiment: α TNF production by human peripheral blood mononuclear cells; type: cell-based; settings: for α TNF produced: 18 hours
# Method: Mononuclear cells of peripheral blood are recovered from buffy coats of 6 healthy donors. Such buffy coat cells are resuspended and mononuclear cells are isolated by centrifugation on a Ficoll-Paque gradient (Amersham Pharmacia). Purified mononuclear cells are resuspended into RPMI-1640 medium supplemented with 10% FCS, antibiotics, mercaptoethanol and L-glutamine. Cell concentration is adjusted to 2×10^6 viable cells/ml
# 100 μl of each one of these solutions of acyl dipeptide-like compounds bearing an accessory functional side chain spacer, diluted 100-, 10- or 1-fold in RPMI medium 1640, are dispensed into a microtiter plate. Samples are tested in triplicates, and each microtiter plate includes a negative control made up of plain medium. Dilutions of E. coli LPS (ranging grom 1 to 0.00001 μg/ml) are used as a positive control.
# 100 μl of the cell suspension are added to each well containing product dilute solutions or control. Cells are incubated with the products for 18 hours in an incubator at 37° C., under 5% CO2 and a moisture saturated atmosphere.
# At the end of the incubation period, microtiter plates are centrifuged, and the supernatant fluids are pooled and frozen at −80° C. as aliquots until time of ELISA assay.
# Concentration of α TNF secreted by mononuclear cells is determined by chemiluminescent ELISA (QuantiGlo #QTAOO R&D kit). 4-fold supernatant fluid dilutions are dispensed into each well of the microtiter plate to which anti-αTNF antibodies are bound. The microtiter plate is incubated for 4 hours at room temperature. After washing, peroxidase-conjugated anti-human a TNF antibody is added. Following a 2 hour incubation period and thorough washing, a chemiluminescent substrate is added and chemilunescence is read after 20 minutes. α TNF content in the supernatant fluid is determined with respect to a standard curve covering the 7000 to 0.7 pg/ml range.
# Results are expressed in pg/ml of α TNF produced. Results derive from an experiment representative of acyl-dipeptide-like compound activity
# [3] = system: bone marrow stem cells; experiment: bone marrow stem cell proliferation (XTT); type: cell-based, C57/BL6 mice; settings: for Max amplitude: 7 days, XTT 492 nm; for Min amplitude: blank ± 3× standard deviation; for Max concentration: concentration at maximum amplitude; for EC50 conc: concentration corresponding to 50% of maximum amplitude; for Min concentration: lowest concentration inducing a significant proliferation
# Text: 6-week old male C57/BL6 mice are killed by CO2 inhalation. The hip, femur, tibia and hind leg bones are removed. The marrow is extracted from the bone lumen by injecting Dulbecco's Modified Eagle Medium (DH medium) from the end portions which had been excised. The stem cells are washed and suspended again in DH medium supplemented with 20% foetal calf serum (FCS) The cell concentration is adjusted to 500000 cells/ml.
# Products previously dissolved in DH medium supplemented with 20% FCS, amino acids and antibiotics are serially diluted directly into a microtiter plate. The products are tested in triplicate and each microtiter plate includes a negative control containing plain medium. The final volume in each well is 100 μl.
# 100 μl of the cell suspension are added to diluted solutions of products and the cells are incubated for 7 days in an incubator at 37° C., under 8% CO2 and a moisture saturated atmosphere. Cell proliferation is determined by measuring the […] of a chromogenic substrate XTT (2,3-bis[2-methoxy-4-nitro-5-sulphophenyl]-2H-tetrazolium-5-carboxanilide) in mitochondria of viable cells.
# At the end of the incubation period, 50 μl of the XTT substrate solution (1 mg/ml XTT+0.008 mg/ml phenazine methosulfate) are added to each well. After an 8 hour incubation period at 37° C. under 8% CO2 in a moisture saturated incubator, the microtiter plates are read with a spectrophotometer at 492 nm against a reference sample at 690 nm.
# Results are expressed as mean value±standard deviation and plotted as a dose versus response curve. Values for a negative control composed of DH medium (mean±standard deviation) are also graphically shown.
# From this dose versus response curve, 3 curve variables are computed:
# Max: maximum curve amplitude and corresponding concentration
# EC50: concentration corresponding to 50% of maximum amplitude
# Min: lowest concentration inducing a significant proliferation corresponding to the blank±3× standard deviation value
# Concentration values corresponding to EC50 and Min are determined from line segments joining different points on the curve.
# If the curve has no plateau phase but an ascending configuration for the highest concentration being tested, a “>” sign is shown before Max and EC50 values.
Structure (SMILES),CD86 % CD [1] [%],CD86 Fluorescence [1],α TNF produced ([2]; product 1 μg/ml) [pg/mL],α TNF produced ([2]; product 10 μg/ml) [pg/mL],α TNF produced ([2]; product 100 μg/ml) [pg/mL],Max amplitude [3] [O.D],Min amplitude [3] [O.D],Max concentration [3] [µg/mL],EC50 conc [3] [µg/mL],Min concentration [3] [µg/mL],concentration inducing an increase in expression of CD83 and CD86 surface markers ([1]; FIGS. 75 & 76),concentration at which a significant α TNF production level is induced ([2]; only at this concentration) [µg/mL]
CCCCCCCCCCCC(=O)O[C@H](CCCCCCCCCCC)CC(=O)N[C@H](CC(=O)N[C@@H](CCCCN)C(=O)O)C(=O)NCCC[C@H](CO)NC(=O)C[C@H](O)CCCCCCCCCCC [OM-197-Lys],21.2,2.1,284,164,20,1.56,< 0.86,25,3.3,< 0.39,,
"CCCCCCCCCCCC(=O)O[C@H](CCCCCCCCCCC)CC(=O)N[C@H](CC(=O)N[C@@H](CC(=O)O)C(=O)O)C(=O)NCCC[C@H](CO)NC(=O)C[C@H](O)CCCCCCCCCCC [OM-197-Asp, N—[(R)-3-dodecanoyloxytetradecanoyl]-D-aspartic acid, α-N-{(4R)-5-hydroxy-4-[(R)-3-hydroxytetradecanoylamino]-pentyl}Amide β-N-[(1S)-1,2-Dicarboxyethyl]Amide]",29.0,2.6,0,28,80,1.22,0.80,25,5.0,1.89,,
CCCCCCCCCCCC(=O)O[C@H](CCCCCCCCCCC)CC(=O)N[C@H](CC(=O)O)C(=O)NCCC[C@H](COC(=O)CCCCCNC(=O)CCC(=O)OC[C@H]1O[C@@H](n2cc(C)c(=O)[nH]c2=O)C[C@@H]1N=[N+]=[N-])NC(=O)C[C@H](O)CCCCCCCCCCC [OM-197-MC-AC-Succ-AZT],81.4,6.1,108,224,64,1.08,0.80,12.5,3.3,2.11,,
"CCCCCCCCCCCC(=O)O[C@H](CCCCCCCCCCC)CC(=O)N[C@H](CC(=O)O)C(=O)NCCC[C@H](CO)NC(=O)C[C@H](O)CCCCCCCCCCC [OM-197-MC, N—[(R)-3-dodecanoyloxytetradecanoyl]-D-aspartic acid, α-N-{(4R)-5-hydroxy-4[(R)-3-hydroxytetradecanoylamino]-pentyl}amide]",,,0,0,12,1.75,0.80,64,19.4,1.25,at least 1 μg/ml,100
"CCCCCCCCCCCC(=O)O[C@H](CCCCCCCCCCC)CC(=O)N[C@H](CC(=O)O)C(=O)NCCC[C@H](COC(=O)CCCCC(O)CO)NC(=O)C[C@H](O)CCCCCCCCCCC (stereo partly drawn) [OM-197-MC-FV5, N—[(R)-3-dodecanoyloxytetradecanoylamino]-D-aspartic acid, α-N-{(4R)-5-hydroxy-4-[(R)-3-hydroxytetra-decanoylamino]-pentyl}amide 5-O-(6,7-dihydroxyheptanoate)]",74.5,5.6,0,104,116,1.75,0.80,50,32.0,8.20,,
CCCCCCCCCCCC(=O)O[C@H](CCCCCCCCCCC)CC(=O)N[C@H](CC(=O)O)C(=O)NCCC[C@H](COC(=O)CCCCCNC(=O)CCC(=O)OC[C@@H]1C=C[C@H](n2cc(C)c(=O)[nH]c2=O)O1)NC(=O)C[C@H](O)CCCCCCCCCCC [OM-197-MC-AC-Succ-d4T],25.9,2.4,0,40,52,1.40,0.80,50,25.4,2.81,,
CCCCCCCCCCCC(=O)O[C@H](CCCCCCCCCCC)CC(=O)N[C@H](CC(=O)O)C(=O)NCCC[C@H](COC(=O)CCC(=O)O)NC(=O)C[C@H](O)CCCCCCCCCCC [OM-197-MC-Succ],34.9,3.0,0,96,176,2.16,0.80,50,24.7,2.95,,
"CCCCCCCCCCCC(=O)O[C@H](CCCCCCCCCCC)CC(=O)N[C@H](CC(=O)N[C@@H](CC(=O)O)C(=O)O)C(=O)NCCC[C@H](COC(=O)CCCCCN)NC(=O)C[C@H](O)CCCCCCCCCCC [OM-197-Asp-AC, N—[(R)-3-dodecanoyloxytetradecanoyl]-D-aspartic acid, α-N-{(4R)-5-(6-aminohexanoyloxy)-4-[(R)-3-hydroxytetradecanoyl-amino]-pentyl}amide β-N-[(1S)-1,2-dicarboxyethyl]Amide]",26.7,2.4,20,172,132,1.33,0.80,50,2.8,1.27,,

# Source: patent US8173133B2, “Acyl pseudodipeptides which carry a functionalized auxiliary arm” (OM Pharma, priority 1999, dated 2012)
